# Laboratory results published in patent US7138361B2, “Herbicidal heterocycles” (E. I. du Pont de Nemours and Company, priority 2000, dated 2006).
# Assays:
# Format in all cases: in vivo
# [1] = tested on: barnyardgrass (Echinochloa crus-galli); experiment: Test B postemergence; conditions: 13 to 15 days
# Summary of the method: (§1)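 Seeds were planted and sprayed preemergence with test chemical in a non-phytotoxic solvent mixture containing surfactant; postemergence plants (2 to 18 cm, 1- to 4-leaf stage) received the same formulation. Greenhouse hold 13 to 15 days, then visual rating versus untreated controls on a 0–100 scale (0 no effect, 100 complete control).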
# corn (Zea mays) [2] = experiment: Test B postemergence; conditions: 13 to 15 days
# Summary of the method: as §1
# [3] = tested on: wheat (Triticum aestivum); experiment: Test B postemergence; conditions: Rate 500 g/ha, scale 0 to 100, 0 is no effect, 100 is complete control, 13 to 15 days
# Summary of the method: as §1
# wild oat (Avena fatua) = experiment: Test B postemergence; conditions: Rate 500 g/ha, scale 0 to 100, 0 is no effect, 100 is complete control, 13 to 15 days
# Summary of the method: as §1
# Nightshade [4] = experiment: Test C preemergence
# corn (Zea mays) [5] = experiment: Test C preemergence
# Summary of the method: (§2)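 Compounds in non-phytotoxic solvent with surfactant applied preemergence to planted seeds and postemergence to plants at 1- to 4-leaf stage (2–18 cm). Kept in greenhouse 12–14 days, then visually rated against controls on a 0 (no effect) to 100 (complete control) scale.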
# [6] = tested on: johnsongrass (Sorghum halepense); experiment: Test C preemergence
# Summary of the method: as §2
# kochia (Kochia scoparia) = experiment: Test C preemergence
# Summary of the method: as §2
# [7] = tested on: lambsquarters (Chenopodium album); experiment: Test C preemergence
# Summary of the method: as §2
# [8] = tested on: pigweed (Amaranthus retroflexus); experiment: Test C preemergence
# Summary of the method: as §2
# soybean (Glycine max) = experiment: Test C preemergence
# Summary of the method: as §2
# [9] = tested on: woolly cupgrass (Eriochloa villosa); experiment: Test C preemergence
# Summary of the method: as §2
# [10] = tested on: yellow nutsedge (Cyperus esculentus); experiment: Test C preemergence
# Summary of the method: as §2
# [11] = tested on: barnyardgrass (Echinochloa crus-galli); experiment: Test C flooded paddy test; conditions: for Barnyardgrass plant response rating: Flooded Paddy, scale 0 to 100, 0 no effect, 100 complete control; for Plant response rating, Barnyardgrass: flooded paddy test, scale 0 to 100 (0 no effect, 100 complete control)
# Summary of the method: (§3)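 Each species was cultivated to 2 leaves in flooded paddy pots, then treated. After a greenhouse period of 12–14 days, the plants were scored visually relative to controls from 0 (no effect) to 100 (complete control).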
# [12] = tested on: duck salad (Heteranthera limosa); experiment: Test C flooded paddy test; conditions: for Ducksalad plant response rating: Flooded Paddy, scale 0 to 100, 0 no effect, 100 complete control; for Plant response rating, Ducksalad: flooded paddy test, scale 0 to 100 (0 no effect, 100 complete control)
# Summary of the method: as §3
# rice (Oryza saliva) = experiment: Test C flooded paddy test; conditions: for Rice plant response rating: Flooded Paddy, scale 0 to 100, 0 no effect, 100 complete control; for Plant response rating, Rice: flooded paddy test, scale 0 to 100 (0 no effect, 100 complete control)
# Summary of the method: as §3
# [13] = tested on: smallflower flatsedge (Cyperus difformis); experiment: Test C flooded paddy test; conditions: for Flatsedge plant response rating: Flooded Paddy, scale 0 to 100, 0 no effect, 100 complete control; for Plant response rating, Flatsedge: flooded paddy test, scale 0 to 100 (0 no effect, 100 complete control)
# Summary of the method: as §3
# Nightshade [14] = experiment: Test C preemergence; conditions: Rate 500 g/ha, visual evaluation after 12 to 14 days
# Sunflower = experiment: Test C preemergence; conditions: Rate 250 g/ha, scale 0 to 100, 0 no effect, 100 complete control
# [15] = Rate 125 g/ha, scale 0 (no effect) to 100 (complete control)
# [16] = Rate 500 g/ha, scale 0 to 100, 0 is no effect, 100 is complete control
# [17] = Rate 125 g/ha, scale 0 to 100, 0 no effect, 100 complete control
# [18] = preemergence, Rate 62 g/ha, scale 0 to 100
# [19] = preemergence, Rate 500 g/ha, visual evaluation after 12 to 14 days
# [20] = preemergence, Rate 250 g/ha, scale 0 to 100, 0 no effect, 100 complete control
smiles,measurement,setting,value
CCC(CC)c1ccn(C2CCN(c3cccc(OC)c3)C2=O)n1 (centres unmarked) [Compound 96],"Plant response rating, Barnyardgrass",[1]; [15],0
same,"Plant response rating, Barnyardgrass",[1]; [16],90
same,"Plant response rating, Corn",corn (Zea mays) [2]; [15],0
same,"Plant response rating, Corn",corn (Zea mays) [2]; [16],0
same,"Plant response rating, Wheat",[3],0
same,"Plant response rating, Wild Oat",wild oat (Avena fatua),0
same,"Plant response rating, Nightshade","Nightshade [4]; Rate 62 g/ha, scale 0 to 100",0
same,"Plant response rating, Nightshade",Nightshade [4]; [17],10
same,"Plant response rating, Nightshade","Nightshade [4]; Rate 250 g/ha, scale 0 to 100, 0 no effect, 100 complete control",60
same,"Plant response rating, Corn",corn (Zea mays) [5]; [17],20
same,"Plant response rating, Corn",corn (Zea mays) [5]; [18],0
same,"Plant response rating (0 to 100), Corn",corn (Zea mays) [5]; [19],50
same,"Plant response rating, Corn",corn (Zea mays) [5]; [20],40
same,"Plant response rating, Johnsongrass",[6]; [17],30
same,"Plant response rating, Johnsongrass",[6]; [18],20
same,"Plant response rating (0 to 100), Johnsongrass",[6]; [19],70
same,"Plant response rating, Johnsongrass",[6]; [20],50
same,"Plant response rating, Kochia",kochia (Kochia scoparia); [17],100
same,"Plant response rating, Kochia",kochia (Kochia scoparia); [18],100
same,"Plant response rating (0 to 100), Kochia",kochia (Kochia scoparia); [19],100
same,"Plant response rating, Kochia",kochia (Kochia scoparia); [20],100
same,"Plant response rating, Lambsquarters",[7]; [17],100
same,"Plant response rating, Lambsquarters",[7]; [18],100
same,"Plant response rating (0 to 100), Lambsquarters",[7]; [19],100
same,"Plant response rating, Lambsquarters",[7]; [20],100
same,"Plant response rating, Pigweed",[8]; [17],0
same,"Plant response rating, Pigweed",[8]; [18],0
same,"Plant response rating (0 to 100), Pigweed",[8]; [19],50
same,"Plant response rating, Pigweed",[8]; [20],0
same,"Plant response rating, Soybean",soybean (Glycine max); [17],0
same,"Plant response rating, Soybean",soybean (Glycine max); [18],0
same,"Plant response rating (0 to 100), Soybean",soybean (Glycine max); [19],70
same,"Plant response rating, Soybean",soybean (Glycine max); [20],50
same,"Plant response rating, Cupgrass, Woolly",[9]; [17],95
same,"Plant response rating, Cupgrass, Woolly",[9]; [18],60
same,"Plant response rating (0 to 100), Cupgrass, Woolly",[9]; [19],100
same,"Plant response rating, Cupgrass, Woolly",[9]; [20],100
same,"Plant response rating, Nutsedge",[10]; [17],0
same,"Plant response rating, Nutsedge",[10]; [18],0
same,"Plant response rating (0 to 100), Nutsedge",[10]; [19],70
same,"Plant response rating, Nutsedge",[10]; [20],10
same,Barnyardgrass plant response rating,[11]; Rate 250 g/ha,100
same,Barnyardgrass plant response rating,[11]; Rate 500 g/ha,100
same,"Plant response rating, Barnyardgrass",[11]; Rate 62 g/ha,80
same,"Plant response rating, Barnyardgrass",[11]; Rate 125 g/ha,80
same,Ducksalad plant response rating,[12]; Rate 250 g/ha,100
same,Ducksalad plant response rating,[12]; Rate 500 g/ha,100
same,"Plant response rating, Ducksalad",[12]; Rate 62 g/ha,80
same,"Plant response rating, Ducksalad",[12]; Rate 125 g/ha,90
same,Rice plant response rating,rice (Oryza saliva); Rate 250 g/ha,50
same,Rice plant response rating,rice (Oryza saliva); Rate 500 g/ha,60
same,"Plant response rating, Rice",rice (Oryza saliva); Rate 62 g/ha,0
same,"Plant response rating, Rice",rice (Oryza saliva); Rate 125 g/ha,0
same,Flatsedge plant response rating,[13]; Rate 250 g/ha,100
same,Flatsedge plant response rating,[13]; Rate 500 g/ha,100
same,"Plant response rating, Flatsedge",[13]; Rate 62 g/ha,90
same,"Plant response rating, Flatsedge",[13]; Rate 125 g/ha,90
same,"Plant response rating (0 to 100), Nightshade",Nightshade [14],80
same,"Plant response rating, Sunflower",Sunflower,50
